This is an account of results in ChEMBL document CHEMBL2176881, “Development of N-[4-[6-(isopropylamino)pyrimidin-4-yl]-1,3-thiazol-2-yl]-N-methyl-4-[11C]methylbenzamide for positron emission tomography imaging of metabotropic glutamate 1 receptor in monkey brain” (J Med Chem, 2012).

Data set [1] can be described thus: Metabolic stability in Sprague-Dawley plasma assessed as unchanged drug level at 37 MBq/0.1 mL, iv after 15 mins. In kind it is ADME, organism-based. The following applies: rat, read-out: Stability.
A short description of data set [2]: Drug uptake in monkey cerebellum assessed as distribution volume ratio at 185 to 220 MBq, iv after 10 to 90 mins by PET analysis. In kind it is ADME, organism-based, Macaca mulatta. The conditions noted are these: rhesus monkey, in vivo.
The test system of data set [3] is Liver. Nature of the data set: Biodistribution in ddY mouse liver at 4.8 MBq/0.1 mL after 90 mins by gamma counting. It counts as ADME, organism-based. The conditions noted are these: in vivo, 1.5 h.
The subject of data set [4] is Liver. As to the kind of experiment: Biodistribution in ddY mouse liver at 4.8 MBq/0.1 mL after 60 mins by gamma counting. It counts as ADME, organism-based. The conditions noted are these: in vivo, 1 h.
The species named for a further data set is Mus musculus. Nature of the data set: Biodistribution in ddY mouse large intestine at 4.8 MBq/0.1 mL after 30 mins by gamma counting. The conditions noted are these: in vivo, 0.5 h. It counts as ADME, organism-based.
For data set [5], the system named is Liver. As to the kind of experiment: Biodistribution in ddY mouse liver at 4.8 MBq/0.1 mL after 15 mins by gamma counting. In kind it is ADME, organism-based. The following applies: in vivo, 0.25 h.

Molecules are shown by their SMILES.

As to `CC(C)Nc1cc(-c2csc(N(C)C(=O)c3ccc([14CH3])cc3)n2)ncn1`, in data set [1], the remaining at 0.25 h was 47.6%. Moreover, the Ratio in data set [2] came out at 4.3. The Drug uptake turned out to be 0.3 % ID/g with Liver [3], 0.51 % ID/g with Liver [4], 2.32 % ID/g in the data set listed under Mus musculus and 4.89 % ID/g in the data set on Liver [5].
